Melting point data for 47 compounds are collected here from patent publication US8236826B2, “Diarylether derivatives as antitumor agents” (Otsuka Pharmaceutical Co., Ltd., priority 2005, dated 2012).

Where a name gives a salt, the structure may show the parent alone.

The term melting point denotes the temperature, or range, at which the solid turns liquid. For the compound `Cc1cc(N(C)CC(=O)N2CCN(Cc3ccoc3)CC2)ccc1Oc1ccc(NC(=O)c2ccc(C(F)(F)F)cc2)cn1` (as salt: hydrochloride) [Example 792], the melting point lay in the range of 158.5 to 161 °C. The result for `Cc1cc(N(C)CC(=O)N2CCN(Cc3ccc4c(c3)OCO4)CC2)ccc1Oc1ccc(NC(=O)c2ccc(Cl)c(Cl)c2)cn1` (as salt: hydrochloride) [Example 1512] reads 183 to 185 °C (dec.).

On to `O=C(Nc1ccc(Oc2ccc(C3CCN(C(=O)CN4CCOCC4)CC3)cc2)cc1)c1ccc(Cl)c(Cl)c1` (as salt: hydrochloride) [Example 2571], for which the melting point lay within 146 to 150 °C. The result for `CCN(CC(=O)N1CCN(Cc2ccccc2)CC1)c1ccc(Oc2ccc(NC(=O)c3ccc(C(F)(F)F)cc3)cn2)c(C)c1` (as salt: maleate) [Example 1513] reads 165 to 167 °C. The figure for `O=C(Nc1ccc(Oc2ccc(C(=O)N3CCOCC3)cc2)cc1)c1ccc(Cl)c(Cl)c1` [Example 10] is 189 to 192 °C; for `O=C(Nc1ccc(Oc2ccc(C(=O)N3CCOCC3)cc2)c(F)c1)c1ccc(Cl)c(Cl)c1` [Example 11] it is 203 to 204 °C; for `O=C(Nc1ccc(Oc2ccc(C(=O)N3CCN(c4ccccn4)CC3)cc2)nc1)c1ccc(C(F)(F)F)cc1` [Example 176] it is 222 to 224 °C.

On to `CC(C)(C)OC(=O)N1CCN(C(=O)CCc2ccc(Oc3ccc(NC(=O)c4ccc(Cl)c(Cl)c4)cc3F)cc2)CC1` [Example 464], for which the melting point was in the range of 155 to 157 °C. The result for `O=C(Nc1ccc(Oc2ccc(CCC(=O)N3CCN(c4cccnc4)CC3)cc2)cc1)c1ccc(Cl)c(Cl)c1` [Example 466] reads 153 to 155 °C; that for `O=C(Nc1ccc(Oc2ccc(CCC(=O)N3CCN(c4cccnc4)CC3)cc2)c(F)c1)c1ccc(Cl)c(Cl)c1` [Example 467], 183 to 185 °C. The compound `Cc1cc(N(C)CC(=O)N2CCN(Cc3ccoc3)CC2)ccc1Oc1ccc(NC(=O)c2ccc(Cl)c(Cl)c2)cn1` [Example 718] registered a melting point of 116.5 to 118 °C. Compound `CC(=O)N(CC(=O)N1CCN(Cc2ccc3c(c2)OCO3)CC1)c1ccc(Oc2ccc(NC(=O)c3ccc(Cl)c(Cl)c3)cn2)c(C)c1` [Example 725] returned a melting point of 216 to 217 °C. The figure for `CCN(CC(=O)N1CCN(Cc2ccc3c(c2)OCO3)CC1)c1ccc(Oc2ccc(NC(=O)c3ccc(Cl)c(Cl)c3)cn2)c(F)c1` [Example 728] is 149 to 151 °C; for `CN(CC(=O)N1CCN(Cc2ccc3c(c2)OCO3)CC1)c1ccc(Oc2ccc(NC(=O)c3ccc(Cl)c(Cl)c3)cn2)c(F)c1` [Example 729] it is 199 to 201 °C; for `CC(=O)N(CC(=O)N1CCN(Cc2ccc3c(c2)OCO3)CC1)c1ccc(Oc2ccc(NC(=O)c3ccc(Cl)c(Cl)c3)cn2)c(F)c1` [Example 730] it is 233 to 235 °C.

In the case of `CC(=O)N(CC(=O)N1CCN(Cc2ccccc2)CC1)c1ccc(Oc2ccc(NC(=O)c3ccc(C(F)(F)F)cc3)cn2)cc1` [Example 771], the melting point lay within 161 to 162 °C. The figure for `CCN(CC(=O)N1CCN(Cc2ccc3c(c2)OCO3)CC1)c1ccc(Oc2ccc(NC(=O)c3ccc(C(F)(F)F)cc3)cn2)cc1` [Example 774] is 178 to 180 °C; for `CCN(CC(=O)N1CCN(Cc2ccc3c(c2)OCO3)CC1)c1ccc(Oc2ccc(NC(=O)c3ccc(C(F)(F)F)cc3)cn2)c(F)c1` [Example 775] it is 170 to 172 °C.

The compound `CN(CC(=O)N1CCN(Cc2ccc3c(c2)OCO3)CC1)c1ccc(Oc2ccc(NC(=O)c3ccc(C(F)(F)F)cc3)cn2)c(F)c1` [Example 776] returned a melting point of 220 to 221 °C. The figure for `CCN(CC(=O)N1CCN(Cc2ccoc2)CC1)c1ccc(Oc2ccc(NC(=O)c3ccc(C(F)(F)F)cc3)cn2)c(OC)c1` [Example 784] is 174 to 176 °C; for `COc1cc(N(C)CC(=O)N2CCN(Cc3ccoc3)CC2)ccc1Oc1ccc(NC(=O)c2ccc(C(F)(F)F)cc2)cn1` [Example 785] it is 160 to 164 °C. The compound `Br.CN(CC(=O)N1CCN(Cc2ccc3c(c2)OCO3)CC1)c1cc(F)c(Oc2ccc(C(=O)Nc3ccc(C(F)(F)F)cc3)cn2)cc1F` [Example 1037, 6-(4-{[2-(4-Piperonylpiperazin-1-yl)-2-oxoethyl]methylamino}-2,5-difluorophenoxy)-N-(4-trifluoromethylphenyl)nicotinamide hydrobromide] had a melting point of 224.5 to 226 °C.

For the compound `O=C(Nc1ccc(Oc2ccc(N3CCN(Cc4ccccc4)C3=O)cc2)nc1)c1ccc(C(F)(F)F)cc1` [Example 1181], the melting point is 203 to 204 °C. The result for `O=C(Nc1ccc(Oc2ccc(N3CCN(Cc4ccccc4)C3=O)cc2)nc1)c1ccc(Cl)c(Cl)c1` [Example 1182] reads 186 to 187 °C; that for `Cc1cc(N2CCCN(Cc3ccc4c(c3)OCO4)C2=O)ccc1Oc1ccc(NC(=O)c2ccc(C(F)(F)F)cc2)cn1` [Example 1183], 165 to 166 °C; that for `Cc1cc(N2CCCN(Cc3ccc4c(c3)OCO4)C2=O)ccc1Oc1ccc(NC(=O)c2ccc(Cl)c(Cl)c2)cn1` [Example 1184], 122 to 124 °C. The figure for `COc1ccc(CN2CCCN(c3ccc(Oc4ccc(NC(=O)c5ccc(C(F)(F)F)cc5)cn4)c(C)c3)C2=O)cc1OC` [Example 1185] is 155 to 157 °C; for `Cc1cc(N2CCCN(CC(=O)N3CCN(Cc4ccc5c(c4)OCO5)CC3)C2=O)ccc1Oc1ccc(NC(=O)c2ccc(C(F)(F)F)cc2)cn1` [Example 1186] it is 182 to 183.5 °C; for `COc1ccc(CN2CCCN(c3ccc(Oc4ccc(NC(=O)c5ccc(Cl)c(Cl)c5)cn4)c(C)c3)C2=O)cc1OC` [Example 1187] it is 117 to 118 °C. For the compound `CCOC(=O)c1ccc(N2CCCN(c3ccc(Oc4ccc(NC(=O)c5ccc(C(F)(F)F)cc5)cn4)c(C)c3)C2=O)cc1` [Example 1188], the melting point was 160 to 161 °C.

In turn, `Cc1cc(N2CCN(Cc3ccc4c(c3)OCO4)C2=O)ccc1Oc1ccc(NC(=O)c2ccc(C(F)(F)F)cc2)cn1` [Example 1504, N-{6-[2-methyl-4-(2-oxo-3-piperonylimidazolidin-1-yl)phenoxy]pyridin-3-yl}-4-trifluoromethylbenzamide] returned a melting point of 188 to 189 °C. The figure for `CCN(CC(=O)N1CCN(Cc2ccccc2)CC1)c1ccc(Oc2ccc(NC(=O)c3ccc(Cl)c(Cl)c3)cn2)c(C)c1` [Example 1514] is 102 to 105 °C.

In turn, `Cc1cc(N(C)CC(=O)N2CCN(Cc3ccccc3)CC2)ccc1Oc1ccc(NC(=O)c2ccc(C(F)(F)F)cc2)cn1` [Example 1515] showed a melting point of 110 to 111 °C.

Turning to `Cc1cc(N(C)CC(=O)N2CCN(Cc3ccccc3)CC2)ccc1Oc1ccc(NC(=O)c2ccc(Cl)c(Cl)c2)cn1` [Example 1516], the melting point fell in the range of 111 to 113 °C. The figure for `CN(CC(=O)N1CCN(Cc2ccc3c(c2)OCO3)CC1)c1ccc(Oc2ccc(NS(=O)(=O)c3ccc(Cl)c(Cl)c3)cn2)c(F)c1` [Example 1615, 3,4-dichloro-N-[6-(2-fluoro-4-{methyl[2-oxo-2-(4-piperonylpiperazin-1-yl)ethyl]amino}phenoxy)pyridin-3-yl]benzenesulfonamide] is 185.6 to 187 °C; for `O=C(Nc1ccc(Oc2ccc(N3CCN(S(=O)(=O)c4ccccc4)CC3)cc2)cc1)c1ccc(Cl)c(Cl)c1` [Example 2031, N-{4-[4-(4-benzenesulfonylpiperazin-1-yl)phenoxy]phenyl}-3,4-dichlorobenzamide] it is 191 to 192 °C; for `O=C(Nc1ccc(Oc2ccc(N3CCN(C(=O)COc4ccccc4)CC3)cc2)cc1)c1ccc(Cl)c(Cl)c1` [Example 2052] it is 171 to 173 °C. The result for `O=C(Nc1ccc(Oc2ccc(N3CCN(C(=O)COc4ccc5c(c4)OCO5)CC3)cc2)cc1)c1ccc(Cl)c(Cl)c1` [Example 2053] reads 116 to 118 °C.

For `Cc1cc(N(C)CC(=O)N2CCN(C(=O)c3ccc4c(c3)OCO4)CC2)ccc1Oc1ccc(NC(=O)c2ccc(Cl)c(Cl)c2)cn1` [Example 2054], the melting point lay within 133 to 135 °C.

Turning to `CC(=O)N(c1ccc(CCC(=O)N2CCN(Cc3ccc4c(c3)OCO4)CC2)cc1)c1ccc(NC(=O)c2ccc(Cl)c(Cl)c2)cn1` [Example 2099, N-[6-(Acetyl{4-[3-oxo-3-(4-piperonylpiperazin-1-yl)propyl]phenyl}amino)pyridin-3-yl]-3,4-dichlorobenzamide], the melting point lay in the range of 150 to 165 °C. In the case of `O=C(Nc1ccc(Oc2ccc(C3=CCN(CCCn4ccnc4)CC3)cc2)cc1)c1ccc(Cl)c(Cl)c1` [Example 2486, 3,4-Dichloro-N-(4-{4-[1-(3-imidazole-1-ylpropyl)-1,2,3,6-tetrahydropyridine-4-yl]phenoxy}phenyl)-benzamide], the melting point was in the range of 169 to 171 °C. The figure for `O=C(Nc1ccc(Oc2ccc(N3CCN(C(=O)CN4CCOCC4)CC3)cc2)cc1)c1ccc(Cl)c(Cl)c1` [Example 2559] is 177 to 178 °C; for `O=C(CN1CCOCC1)c1ccc(Oc2ccc(NC(=O)c3ccc(Cl)c(Cl)c3)cc2F)cc1` [Example 2563] it is 177 to 178 °C. The compound `O=C(Nc1ccc(Oc2ccc(C3=CCN(C(=O)CN4CCOCC4)CC3)cc2)cc1)c1ccc(Cl)c(Cl)c1` [Example 2565] displayed a melting point of 195 to 197 °C. For the compound `CN(C(=O)CN1CCOCC1)C1CCN(c2ccc(Oc3ccc(NC(=O)c4ccc(Cl)c(Cl)c4)cc3)cc2)CC1` [Example 2572], the melting point fell in the range of 157 to 160 °C.

Consider `Cc1cc(N2CCC(CC(=O)N3CCN(Cc4ccc5c(c4)OCO5)CC3)CC2)ccc1Oc1ccc(NS(=O)(=O)c2ccc(C(F)(F)F)cc2)cn1` [Example 2703, N-[6-(4-{4-[2-(4-piperonylpiperazin-1-yl)-2-oxoethyl]piperidin-1-yl}-2-methylphenoxy)pyridin-3-yl]-4-trifluoromethylbenzenesulfonamide], for which the melting point was in the range of 156 to 158 °C. The result for `O=C(C1CCN(c2ccc(Oc3ccc(NS(=O)(=O)c4ccc(Cl)c(Cl)c4)cn3)cc2)CC1)N1CCN(Cc2ccccc2)CC1` [Example 2710, N-(6-{4-[4-(4-benzylpiperazine-1-carbonyl)piperidin-1-yl]phenoxy}pyridin-3-yl)-3,4-dichlorobenzenesulfonamide] reads 185 to 189 °C.
